Patent publication US20230272392A1, “METHODS OF TFEB ACTIVATION AND LYSOSOMAL BIOGENESIS AND COMPOSITIONS THEREFOR” (Casma Therapeutics, Inc., priority 2020, published 2023)

Tests used:
TFE3 and FLCN = TFE3 and FLCN subcellular localization upon dimerizer-induced mitophagy in U2OS cells; assay type: cell-based; conditions: 25 nM, 3 hours; control KO, RB1CC1 KO, GABARAP triple KO U2OS cells; FIG. 50
Procedure: (§1) For high content image acquisition, cells were plated in 96-well glass bottom, black wall plates (Greiner, #655892) or 384-well polystyrene, black-wall plates (Greiner, #781091) and grown overnight to 70% confluency. Treatments were performed as indicated. Cells were fixed for 10 minutes in either −20° C. methanol or 4% paraformaldehyde (Electron Microscopy Sciences). Cells were blocked and permeabilized in a solution containing 1:1 Odyssey blocking buffer (LiCor)/PBS (Invitrogen) with 0.1% Triton X-100 (Sigma) and 1% normal goat serum (Invitrogen) for 1 hour at room temperature. Primary antibodies were added overnight at 4° C. in blocking buffer described above. After washing plates with PBS using an EL-406 plate washer (BioTek), secondary Alexa-conjugated antibodies (Life Technologies) were diluted 1:1,000 in blocking solution and applied for 1 hour at room temperature. Cells were then washed again in PBS as described and imaged using an INCELL 6500 high-content imager (GE Healthcare). Images were analyzed using the GE InCarta software.

GPNMB = GPNMB protein levels (TFEB target gene) upon chronic treatment, Western blot; assay type: cell-based; conditions: FNIP1/2 DKO cells reconstituted with FNIP1; FIG. 44D
Description: For preparation of total cell lysates, cells were lysed in RIPA buffer (#9806, Cell Signaling Technology) supplemented with sodium dodecyl sulfate to 1% final concentration (SDS, Boston BioProducts) and protease inhibitor tablets (Complete EDTA-free, Roche). Lysates were homogenized by sequential passaging through Qiashredder columns (Qiagen), and protein levels were quantified by Lowry DC protein assay (Bio-Rad). Proteins were denatured in 6×Laemmli SDS loading buffer (Boston BioProducts) at 100° C. for 5 minutes. Equivalent amounts of total proteins were separated on Tris-Glycine TGx SDS-PAGE gels (Bio-Rad) for Western blotting. Proteins were transferred to nitrocellulose using standard methods and membranes were blocked in 5% non-fat dry milk (Cell Signaling Technology) in TBS with 0.2% Tween-20 (Boston BioProducts). Primary antibodies were diluted in 5% bovine serum albumin (BSA, Cell Signaling Technology) in TBS with 0.2% Tween-20 and were incubated with membranes at 4° C. overnight. HRP-conjugated secondary antibodies were diluted in blocking solution (1:20,000, ThermoFisher) and incubated with membranes at room temperature for 1 hour. Western blots were developed using West PicoPLUS Super Signal ECL reagents (Pierce) and film (GEHealthcare).

LC3 [1] = test: LC3 lipidation (LC3-I to LC3-II conversion), Western blot and cell images; assay type: cell-based; conditions: for LC3 lipidation (conversion of LC3 "I" form to "II" form): wild type (WT) and autophagy-deficient cells, FIGS. 1, 2, 3
Description: (§2) For preparation of total cell lysates, cells were lysed in RIPA buffer (#9806, Cell Signaling Technology) supplemented with sodium dodecyl sulfate to 1% final concentration (SDS, Boston BioProducts) and protease inhibitor tablets (Complete EDTA-free, Roche). Lysates were homogenized by sequential passaging through Qiashredder columns (Qiagen), and protein levels were quantified by Lowry DC protein assay (Bio-Rad). Proteins were denatured in 6×Laemmli SDS loading buffer (Boston BioProducts) at 100° C. for 5 minutes.
(§3) Equivalent amounts of total proteins were separated on Tris-Glycine TGx SDS-PAGE gels (Bio-Rad) for Western blotting. Proteins were transferred to nitrocellulose using standard methods and membranes were blocked in 5% non-fat dry milk (Cell Signaling Technology) in TBS with 0.2% Tween-20 (Boston BioProducts). Primary antibodies were diluted in 5% bovine serum albumin (BSA, Cell Signaling Technology) in TBS with 0.2% Tween-20 and were incubated with membranes at 4° C. overnight. HRP-conjugated secondary antibodies were diluted in blocking solution (1:20,000, ThermoFisher) and incubated with membranes at room temperature for 1 hour. Western blots were developed using West PicoPLUS Super Signal ECL reagents (Pierce) and film (GEHealthcare).

TFEB [2] = test: TFEB activation in ATG16L1 KO mouse macrophages reconstituted with ATG16L1 WD40 point mutants; assay type: cell-based; conditions: immortalized ATG16L1 KO mouse macrophages; FIG. 21
Procedure: For endogenous TFEB staining in mouse macrophages, cells were fixed in 3.7% formaldehyde for 15 minutes at room temperature, washed in PBS and permeabilized in 0.2% triton/PBS for 5 minutes. Cells were then processed as above for primary (anti-TFEB, Bethyl Laboratories, #A303-673A, 1:200) and secondary antibodies. Images were acquired using a Confocal Zeiss LSM 780 microscope (Carl Zeiss Ltd) equipped with a 40×oil immersion 1.40 numerical aperture (NA) objective using Zen software (Carl Zeiss Ltd). Analysis was performed using Image J. For nuclear cytosol quantification, the ratio of fluorescent intensity of TFEB within the DAPI was mask versus the cytosol of 30 cells across 2 independent experiments were measured.

TFEB [3] = test: TFEB activation (Western blot / nuclear accumulation) in cell lines; assay type: cell-based; conditions: for TFEB activation under co-treatment with BafA1: FIG. 16
Description: as §2, §3, §1

LC3 [4] = test: LC3 puncta co-localized with LAMP1 in primary bone marrow-derived macrophages, wild-type vs ATG16L1 K490A knock-in; assay type: cell-based, mouse; conditions: FIG. 12
Procedure: For LC3 and LAMP1 staining in primary BMDMs, cells were plated on 18 mm coverslips. The next day, cells were treated as indicated and cells were fixed in ice cold methanol as described above. Cells were then blocked in PBS+5% BSA for 1 hour before addition of primary antibodies (anti-LC3A/B, CST #4108, 1:100; anti-LAMP1, BD #555798, 1:100) and diluted in blocking buffer overnight at 4° C. Cells were then washed and incubated with fluorescent secondary antibodies in blocking buffer for 1 hour at room temperature. Cells were washed in PBS incubated with DAPI and mounted on glass slides using Prolong anti-fade reagent (Life Technologies).
The K490A point mutation was introduced into C57/BL6 mice via direct zygote injection of CRISPR/Cas9 reagents. Briefly, a single stranded guide sequence was designed and synthesized along with a tracrRNA from Dhamacon. A repair donor single stranded DNA sequence was designed to introduce the K490A point mutation and mutate the PAM sequence to stop re-targeting of the Cas9 complex to already edited DNA. These reagents, along with recombinant Cas9, were injected into mouse zygotes. Pups born from these injections were genotyped via Transnetyx and heterozogous founders were bred with wild-type mice to obtain pure heterozygote animals. Further breeding yielded mice homozygous for the K490A mutation. […]

[5] = tested on: U2OS cells expressing mKeima, FRB-p62, and FKBP-FIS1; test: Mitophagy efficiency, Keima fluorescence shift assay in U2OS cells; assay type: cell-based; conditions: dimerizer-induced mitophagy; FIG. 49

Row | SMILES | LC3 lipidation (conversion of LC3 "I" form to "II" form) (LC3 [1]) | TFEB activation in macrophages with ATG16L1-F467A or ATG16L1-K490A (TFEB [2]) | TFEB activation under co-treatment with BafA1 (TFEB [3]) | LC3 puncta formation co-localized with LAMP1, wild-type vs ATG16L1^K490A cells (LC3 [4]) | further results
1 | CO[C@H]1[C@@H](O)[C@H](C)C[C@H](C)/C=C/C=C/C=C(\C)[C@@H](c2c[nH]c3c(C)cccc23)C[C@@H]2CC[C@@H](C)[C@@](O)(O2)C(=O)C(=O)N2CCCC[C@H]2C(=O)O[C@H]([C@H](C)C[C@@H]2CC[C@@H](O)[C@H](OC)C2)C[C@H](O)[C@H](C)/C=C(\C)[C@H]1O [AP21967] | – | – | – | – | TFE3 nuclear localization and FLCN punctate structures (TFE3 and FLCN): seen in CTRL and RBICC1_KO (autophagy-deficient) cells but not in GABARAP_TKO cells
2 | COc1ccc(-c2ccc3c(N4CCOC[C@@H]4C)nc(N4CCOC[C@@H]4C)nc3n2)cc1CO [AZD8055] | able to regulate LC3 lipidation in WT but not autophagy-deficient cells | activated TFEB irrespective of ATG16L1 status | did not prevent TFEB activation | sensitivity to the ATG16L1^K490A mutation was not observed | GPNMB protein levels (GPNMB): largely suppressed; LC3 lipidation: dependence on VPS34 inhibition and Bafilomycin A1 co-treatment (LC3 [1]; FIG. 4): induced conversion of LC3 in a manner sensitive to VPS34 inhibition and was potentiated with the vATPase inhibitor Bafilomycin A1 (BafA1); TFEB activation (with GPNMB readout) (TFEB [3]; FIG. 44D): robust TFEB activation; TFEB nuclear accumulation / activation with SopF expression (TFEB [3]; SopF expression vs SopF negative controls, FIG. 15): did not impact TFEB activation
3 | CO/C1=C\C(C)=C\[C@@H](C)[C@@H](O)[C@@H](C)C/C(C)=C/C=C/[C@H](OC)[C@@H]([C@@H](C)[C@@H](O)[C@H](C)[C@@]2(O)C[C@@H](O)[C@H](C)[C@@H](C(C)C)O2)OC1=O [BafA1, Bafilomycin A1] | – | – | – | – | Keima signal (mitophagy) under co-treatment [5]: blocked the Keima signal
4 | Cc1ccc(S(=O)(=O)Nc2ccccc2N2CCCCC2)s1 [MK6-83] | rapid conversion of LC3 from its cytoplasmic “I” form to the lipidated, punctate “II” form in both wild type (WT) and autophagy-deficient cells | – | prevented | – | –
5 | CC1CC(C)(C)N(C(=O)CN2C(=O)c3ccccc3C2=O)c2ccccc21 (stereo not drawn) [ML-SA1] | rapid conversion of LC3 from its cytoplasmic “I” form to the lipidated, punctate “II” form in both wild type (WT) and autophagy-deficient cells | did not exhibit TFEB activation | – | did not occur in ATG16L1^K490A cells | –
